Data: patent US20060148059A1, “Salt tolerant l-myo-inositol 1-phosphate synthase and the process of obtaining the same” (priority 2002, published 2006)
Like-named read-outs stand apart in the source and are kept apart here.

Experiments:
[1] = test system: Oryza sativa L-myo-inositol 1-phosphate synthase (RINO), native; details: data from RayChaudhury et al. (1997); cited from earlier work
[2] = pH and temperature optimum of enzyme activity; assay type: biochemical
Procedure: The purified bacterially expressed RINO1 and PINO1 proteins were characterized for their biochemical properties (Table-1). […] For both the cases optimum enzyme activity was at 37° C. whereas optimum pH for Porteresia recombinant synthase (PINO1) was 8.0 and the same for Oryza recombinant synthase (RINO1) was 7.5.

[3] = not told
Procedure: FIG. 5: Gel filtration pattern on Superose-12 of RINO1 and PINO1 proteins in absence and presence of 400 mM NaCl. (A) RINO1 without NaCl; (B) RINO1 with NaCl; (C) PINO1 without NaCl; (D) PINO1 with NaCl. Insets depict SDS-PAGE and immuno dot blots of indicated fractions.

[4] = Tryptophan fluorescence in increasing NaCl concentrations; assay type: physicochemical; details: recombinant preparations
Procedure: FIG. 4: Tryptophan fluorescence of purified RINO1 (A) and PINO1 (B) proteins in increasing NaCl concentrations; tracing 1,2,3 & 4 correspond to 0, 100 mM, […] and 400 mM NaCl in the system.
Tryptophan Fluorescence spectra of the recombinant preparations of the inositol synthase(s) from Oryza sativa (RINO1) and Porteresia coarctata (PINO1) are shown in Panel A and B respectively in FIG. 4. […] The emission maxima in both the cases remain close to 336 nm.

[5] = Inositol synthase activity in presence of increasing NaCl concentration; assay type: biochemical; details: NaCl in vitro
Description: With respect to salt-sensitivity, RINO1 and PINO1 proteins differ a great deal.
FIG. 3: Inositol synthase activity in presence of increasing NaCl concentration for purified native (A) and recombinant (B) enzymes.

[6] = enzyme activity; data from RayChaudhury et al. (1997); cited from earlier work

Compound	Temperature Optimum [2] [°C]	pH optimum [2]	Km [1] [µM]	Vmax [1] [μmol^−m]	Gel-permeation elution pattern on addition of salt [3]	salt-sensitivity of inositol synthase activity [5]	further results
O=P(O)(O)OC[C@H]1OC(O)[C@H](O)[C@@H](O)[C@@H]1O (stereo partly shown) [G6P, Glucose 6 phosphate]	–	–	1970	0.07	–	–	–
NC(=O)c1ccc[n+]([C@@H]2O[C@H](COP(=O)([O-])OP(=O)(O)OC[C@H]3O[C@@H](n4cnc5c(N)ncnc54)[C@H](O)[C@@H]3O)[C@@H](O)[C@H]2O)c1 [NAD]	–	–	140	0.09	–	–	–
L-myo-inositol 1-phosphate synthase [RINO Native]	–	–	–	–	–	sensitive to NaCl	Temperature Optimum [6]: 35 °C; pH optimum [6]: 8.2

Further lines, with some results ahead:

Temperature Optimum [2] [°C]	pH optimum [2]	Compound	Km [1] [µM]	Vmax [1] [μmol^−m]	Gel-permeation elution pattern on addition of salt [3]	salt-sensitivity of inositol synthase activity [5]	further results
35	7.5	L-myo-inositol 1-phosphate synthase [PINO Native]	–	–	–	–	–
37	8.0	L-myo-inositol 1-phosphate synthase [PINO Recombinant]	–	–	elutes at the same place	–	Temperature Optimum ([2]; listed as PINO1): 37 °C; pH optimum ([2]; listed as PINO1): 8.0; Tryptophan fluorescence intensity in presence of added salt ([4]; listed as PINO1): rather insensitive
37	7.5	L-myo-inositol 1-phosphate synthase [RINO Recombinant]	–	–	substantial reduction in the original peak and concurrent appearance of a high molecular weight fraction	sensitive to NaCl	Temperature Optimum ([2]; listed as RINO1): 37 °C; pH optimum ([2]; listed as RINO1): 7.5; Tryptophan fluorescence intensity in presence of added salt ([4]; listed as RINO1): quenched significantly
